Measurements as given in patent US7202245B2, “Substituted 4-amino[1,2,4]triazolo[4,3-a] quinoxalines” (Pfizer Inc., priority 2003, dated 2007).

Target: T1, GSK-3 (Homo sapiens, UniProt P49841)
T1 construct: made in house; as in Stambolic et al. 1996
Test: GSK-3 inhibition, cell-free 33P-ATP peptide substrate assay
Format: biochemical
Settings: read-out: inhibitory activity, expressed as IC50's, against GSK-3
Description: The specific activities of the compounds of formula (I) in inhibiting GSK-3 can be determined in both cell-free and cell-based assays, both of which have been previously described in the relevant art. See, for example, U.S. Pat. Nos. 6,417,185 and 6,489,344, the disclosures of which are incorporated herein by reference in their entirety.
A cell-free testing assay can be generally carried out by incubating GSK-3 with a peptide substrate, radiolabeled ATP (e.g., for example, […], both of which are available from Amersham; Arlington Heights, Ill.), magnesium ions, and the compound to be assayed. […] The amount of γ^33P or γ^32P remaining in each well after washing is then quantified to determine the amount of radiolabeled phosphate incorporated into the peptide substrate. […]
Another example of a GSK-3 testing assay, similar to the one described hereinabove, is as follows: enzyme activities are assayed as the incorporation of ^33P from the gamma phosphate of ^33P-ATP (Amersham; Arlington Heights, Ill.; catalog #AH-9968) into biotinylated peptide substrate PKTP-KKAKKL. […] The final concentration of ATP is 0.5 μM (final specific radioactivity of 4 μCi/nmol), and the final concentration of substrate is 0.75 μM. […] Radioactivity associated with the beads is then quantified by standard scintillation counting. […]

T1 sequence (P49841 whole entry): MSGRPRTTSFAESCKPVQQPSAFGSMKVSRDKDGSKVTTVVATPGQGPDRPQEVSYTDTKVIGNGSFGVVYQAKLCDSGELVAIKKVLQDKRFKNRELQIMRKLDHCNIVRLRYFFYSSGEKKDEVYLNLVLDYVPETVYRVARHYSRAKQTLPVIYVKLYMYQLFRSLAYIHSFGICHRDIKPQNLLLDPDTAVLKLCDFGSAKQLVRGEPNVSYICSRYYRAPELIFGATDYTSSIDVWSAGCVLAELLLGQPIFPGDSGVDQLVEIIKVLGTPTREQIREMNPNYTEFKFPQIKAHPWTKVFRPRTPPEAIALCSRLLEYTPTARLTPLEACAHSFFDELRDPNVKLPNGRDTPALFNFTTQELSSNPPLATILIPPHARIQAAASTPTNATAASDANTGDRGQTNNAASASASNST

IC50: 6 nM
SMILES: O=c1[nH]nc2c(NCCNc3ccc(C(F)(F)F)cn3)nc3ccc(F)cc3n12 [Example 71, 8-Fluoro-4-[2-(5-trifluoromethyl-pyridin-2-Ylamino)-ethylamino]-2H-[1,2,4]triazolo[4,3-a]quinoxalin-1-one]
